Earlier results, collected in US20200114015A1, “Novel Alpha-Hydroxy Carboxylic Acid And Derivatives And Other GRAS- Based Prodrugs Of Gamma-Hydroxybutyrate (GHB) And Uses Thereof” (priority 2017, published 2020).

Conditions: GHB marketed as Xyrem

O=C(O)CCCO [GHB, gamma-hydroxybutyrate]
bioavailability: ~25% | half life: 30 to 60 min
